Molecular target: T1, Human FXRα Ligand Binding Domain (FXRα LBD) (Homo sapiens, UniProt Q96RI1)
T1 construct: polyhistidine (N); made in house; host or cells: E. coli BL21 (DE3), pRSET-A vector
T1 sequence (Q96RI1 222-472 isoform Q96RI1-2): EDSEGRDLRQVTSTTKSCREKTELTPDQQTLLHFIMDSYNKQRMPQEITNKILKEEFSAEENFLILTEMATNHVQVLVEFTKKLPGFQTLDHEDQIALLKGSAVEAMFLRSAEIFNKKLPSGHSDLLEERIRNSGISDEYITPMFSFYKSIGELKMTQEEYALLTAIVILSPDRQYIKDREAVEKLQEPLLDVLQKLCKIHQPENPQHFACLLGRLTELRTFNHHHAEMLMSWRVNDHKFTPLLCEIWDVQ
Experiment: FXR Affinity Binding Assay: ligand mediated cofactor peptide (SRC-1 LCD2, 676-700) interaction, time resolved fluorescence
Details: FXRα LBD-APC / europium labeled SRC-1 peptide, TRF signal, at least 2 hours at room temperature; read-out: Activity (pEC50) (converted)
Description: Determination of a ligand mediated cofactor peptide interaction to quantify ligand binding to the nuclear receptor Farnasoid X Receptor (FXR). The method measures the ability of putative ligands to modulate the interaction between the purified bacterial expressed FXRα (LBD) and a synthetic biotinylated peptide based on residues 676-700 of SRC-1(LCD2, 676-700). […] Detection of the associated complex is measured by time resolved fluorescence (TRF). The purified LBD of FXR is labeled with biotin then mixed with stoichiometric amounts of APC labeled streptavidin (Molecular Probes). The biotinylated peptide is then mixed with a ½ stoichiometric amount of europium labeled streptavidin (Wallac Inc). Each is then blocked with a 5 fold excess of biotin and allowed to equilibrate for 15 min. Equimolar amounts of receptor and peptide are mixed together and allowed to equilibrate for at least 30 min prior to the addition to either a variable or constant concentrations of the sample for which the affinity is to be determined. After equilibration, the time-resolved fluorescent signal is quantitated using a fluorescent plate reader. The affinity of the test compound is estimated from a plot of fluorescence versus concentration of test compound added.
Ligands that promote the complex formation induce a concentration-dependent increase in time-resolved fluorescent signal.
Human FXRα Ligand Binding Domain (FXRα LBD) was expressed in E.coli strain BL21 (DE3) as an amino-terminal polyhistidine tagged fusion protein. Expression was under the control of an IPTG inducible T7 promoter. DNA encoding this recombinant protein was subcloned into the pRSET-A expression vector (Invitrogen). The coding sequence of Human FXRα LBD was derived from Genbank accession number U 68233 (amino acids 222 to 472).
Routinely, 30-40 g cell paste (equivalent to 2-3 liters of the fermentation batch) was resuspended in 200-250 mL TBS, pH 7.2 (25mM Tris, 150 mM NaCl). Cells were lysed by passing 3 times through a French Press and cell debris was removed by centrifugation (30 minutes, 20,000 g, 4° C.). The cleared supernatant was filtered through course pre-filters, and TBS, pH 7.2, containing 500 mM imidazole was added to obtain a final imidazole concentration of 50 mM. This lysate was loaded onto a column (6×8 cm) packed with Sepharose [Ni^++ charged]Chelation resin (Pharmacia) and pre-equilibrated with TBS pH 7.21 50 mM imidazole. After washing to baseline absorbance with equilibration buffer, the column was washed with one column volume of TBS pH 7.2 containing 90 mM imidazole. FXRαLBD was eluted directly with 365 mM imidazole. Column fractions were pooled and dialyzed against TBS, pH 7.2, containing 0.5 mM EDTA and 5 mM DTT. The dialyzed protein sample was concentrated using Centri-prep 10 K (Amicon) and subjected to size exclusion, using a column (3×90 cm) packed with Sepharose S-75 resin (Pharmacia) pre-equilibrated with TBS, pH 7.2, containing 0.5 mM EDTA and 5 mM DTT.
Purified FXRα LBD was desalted/buffer exchanged using PD-10 gel filtration columns into PBS [100 mM NaPhosphate, pH 7.2, 150 mM NaCl]. FXRα LBD was diluted to approximately 10 μM in PBS and five-fold molar excess of NHS-LC-Biotin (Pierce) was added in a minimal volume of PBS. This solution was incubated with gentle mixing for 30 minutes at room temperature. The biotinylation modification reaction was stopped by the addition of 2000× molar excess of Tris-HCl, pH 8. The modified FXRα LBD was dialyzed against 4 buffer changes, each of at least 50 volumes, PBS containing 5 mM DTT, 2 mM EDTA and 2% sucrose.

| Compound | EC50 [nM] |
| --- | --- |
| COC(=O)c1ccc(C(=O)Nc2ccc(OCc3c(-c4c(Cl)cccc4Cl)noc3C(C)C)cc2Cl)cc1 [Example 25, Methyl 4-[(2-chloro-4-{[3-(2,6-dichlorophenyl)-5-isopropyl-4-isoxazolyl]methoxy}anilino)carbonyl]benzoate] | 102 to 1000 |
| Cc1cc(OCc2c(-c3c(Cl)cccc3Cl)noc2C(C)C)ccc1NC(=O)c1cccc(C(=O)O)c1 [Example 26, 3-[(4-{[3-(2,6-Dichlorophenyl)-5-isopropyl-4-isoxazolyl]methoxy}-2-methylanilino)carbonyl]benzoic acid] | 1020 to 10000 |
| Cc1cc(OCc2c(-c3c(Cl)cccc3Cl)noc2C(C)C)ccc1NC(=O)c1ccc(C(=O)O)cc1 [Example 27, 4-[(4-{[3-(2,6-Dichlorophenyl)-5-isopropyl-4-isoxazolyl]methoxy}-2-methylanilino)carbonyl]benzoic acid] | 102 to 1000 |
| CC(C)c1onc(-c2c(Cl)cccc2Cl)c1COc1ccc(NC(=O)c2cccc(C(=O)O)c2)c(Cl)c1 [Example 28, 3-[(2-Chloro-4-{[3-(2,6-dichlorophenyl)-5-isopropyl-4-isoxazolyl]methoxy}anilino)carbonyl]benzoic acid] | 102 to 1000 |
| Cc1cc(OCc2c(-c3c(Cl)cccc3Cl)noc2C(C)C)ccc1N(C)C(=O)c1cccc(C(=O)O)c1 [Example 29, 3-[(4-{[3-(2,6-Dichlorophenyl)-5-isopropyl-4-isoxazolyl]methoxy}-2-dimethylanilino)carbonyl]benzoic acid] | 102 to 1000 |
| CC(C)c1onc(-c2c(Cl)cccc2Cl)c1COc1ccc(N(C)C(=O)c2cccc(C(=O)O)c2)c(Cl)c1 [Example 30, 3-[(2-Chloro-4-{[3-(2,6-dichlorophenyl)-5-isopropyl-4-isoxazolyl]methoxy}methylanilino)carbonyl]benzoic acid] | 102 to 1000 |
| CC(C)c1onc(-c2c(Cl)cccc2Cl)c1COc1ccc(N(C)C(=O)c2ccc(C(=O)O)cc2)c(Cl)c1 [Example 31, 4-[(2-Chloro-4-{[3-(2,6-dichlorophenyl)-5-isopropyl-4-isoxazolyl]methoxy}methylanilino)carbonyl]benzoic acid] | 102 to 1000 |
| Cc1cc(OCc2c(-c3ccccc3OC(F)(F)F)noc2C(C)C)ccc1N(C)C(=O)c1cccc(C(=O)O)c1 [Example 32, 3-{[4-({5-Isopropyl-3-[2-(trifluoromethoxy)phenyl]-4-isoxazolyl}methoxy)-2-dimethylanilino]carbonyl}benzoic acid] | 102 to 1000 |
| Cc1cc(OCc2c(-c3ccccc3OC(F)(F)F)noc2C(C)C)ccc1NC(=O)c1cccc(C(=O)O)c1 [Example 33, 3-{[4-({5-Isopropyl-3-[2-(trifluoromethoxy)phenyl]-4-isoxazolyl}methoxy)-2-methylanilino]carbonyl}benzoic acid] | 102 to 1000 |
| CC(C)c1onc(-c2ccccc2OC(F)(F)F)c1COc1ccc(N(C)C(=O)c2cccc(C(=O)O)c2)c(Cl)c1 [Example 34, 3-{[2-Chloro-4-({5-isopropyl-3-[2-(trifluoromethoxy)phenyl]-4-isoxazolyl}methoxy)methylanilino]carbonyl}benzoic acid] | 102 to 1000 |
| COC(=O)c1cccc(S(=O)(=O)N(C)c2ccc(OCc3c(-c4c(Cl)cccc4Cl)noc3C(C)C)cc2C)c1 [Example 35, Methyl 3-{[(4-{[3-(2,6-dichlorophenyl)-5-isopropylisoxazol-4-yl]methoxy}-2-methylphenyl)(methyl)amino]sulfonyl}benzoate] | 102 to 1000 |
| COC(=O)c1cccc(S(=O)(=O)Nc2ccc(OCc3c(-c4c(Cl)cccc4Cl)noc3C(C)C)cc2Cl)c1 [Example 36, Methyl 3-{[(2-chloro-4-{[3-(2,6-dichlorophenyl)-5-isopropylisoxazol-4-yl]methoxy}-phenyl)amino]sulfonyl}benzoate] | 102 to 1000 |
| COC(=O)c1cccc(S(=O)(=O)Nc2ccc(OCc3c(-c4c(Cl)cccc4Cl)noc3C(C)C)cc2C)c1 [Example 37, Methyl 3-{[1(4-{[3-(2,6-dichlorophenyl)-5-isopropylisoxazol-4-yl]methoxy}-2-methylphenyl)amino]sulfonyl}benzoate] | 102 to 1000 |
| COC(=O)c1cccc(S(=O)(=O)Nc2ccc(OCc3c(-c4c(Cl)cccc4Cl)noc3C(C)C)cc2)c1 [Example 38, Methyl 3-{[(4-{[3-(2,6-dichlorophenyl)-5-isopropylisoxazol-4yl]methoxy}phenyl)amino]-sulfonyl}benzoate] | 102 to 1000 |
| Cc1cc(OCc2c(-c3c(Cl)cccc3Cl)noc2C(C)C)ccc1NS(=O)(=O)c1cccc(C(=O)O)c1 [Example 39, 3-{[(4-{[3-(2,6-Dichlorophenyl)-5-isopropylisoxazol-4-yl]methoxy}-2-methylphenyl)-amino]sulfonyl}benzoic acid] | 102 to 1000 |
| CC(C)c1onc(-c2c(Cl)cccc2Cl)c1COc1ccc(NS(=O)(=O)c2cccc(C(=O)O)c2)cc1 [Example 40, 3-{[(4-{[3-(2,6-Dichlorophenyl)-5-isopropylisoxazol-4-yl]methoxy}phenyl)amino]-sulfonyl}benzoic acid] | 1020 to 10000 |
| COC(=O)c1cccc(S(=O)(=O)N(C)c2ccc(OCc3c(-c4c(Cl)cccc4Cl)noc3C(C)C)cc2Cl)c1 [Example 41, Methyl 3-{[(2-chloro-4-{[3-(2,6-dichlorophenyl)-5-isopropylisoxazol-4-yl]methoxy}-phenyl)(methyl)amino]sulfonyl}benzoate] | 102 to 1000 |
| COC(=O)c1cccc(S(=O)(=O)N(C)c2ccc(OCc3c(-c4c(Cl)cccc4Cl)noc3C(C)C)cc2)c1 [Example 42, Methyl 3-{[(4-{[3-(2,6-dichlorophenyl)-5-isopropylisoxazol-4-yl]methoxy}phenyl)-(methyl)amino]sulfonyl}benzoate] | 102 to 1000 |
| CCN(c1ccc(OCc2c(-c3c(Cl)cccc3Cl)noc2C(C)C)cc1Cl)S(=O)(=O)c1cccc(C(=O)OC)c1 [Example 43, Methyl 3-{[(2-chloro-4-{[3-(2,6-dichlorophenyl)-5-isopropylisoxazol-4-yl]methoxy}-phenyl)(ethyl)amino]sulfonyl}benzoate] | 1020 to 10000 |
| CCN(c1ccc(OCc2c(-c3c(Cl)cccc3Cl)noc2C(C)C)cc1C)S(=O)(=O)c1cccc(C(=O)OC)c1 [Example 44, Methyl 3-{[(4-{[3-(2,6-dichlorophenyl)-5-isopropylisoxazol-4-yl]methoxy}-2-methyl-phenyl)(ethyl)amino]sulfonyl}benzoate] | 102 to 1000 |
| CCN(c1ccc(OCc2c(-c3c(Cl)cccc3Cl)noc2C(C)C)cc1)S(=O)(=O)c1cccc(C(=O)OC)c1 [Example 45, Methyl 3-{[(4-{[3-(2,6-dichlorophenyl)-5-isopropylisoxazol-4-yl]methoxy}phenyl)(ethyl)-amino]sulfonyl}benzoate] | 1020 to 10000 |
| CC(C)c1onc(-c2c(Cl)cccc2Cl)c1COc1ccc(NS(=O)(=O)c2cccc(C(=O)O)c2)c(Cl)c1 [Example 46, 3-{[(2-Chloro-4-{[3-(2,6-dichlorophenyl)-5-isopropylisoxazol-4-yl]methoxy}phenyl)amino]sulfonyl}benzoic acid] | 102 to 1000 |
| CC(C)c1onc(-c2c(Cl)cccc2Cl)c1COc1ccc(N(C)S(=O)(=O)c2cccc(C(=O)O)c2)c(Cl)c1 [Example 47, 3-{[(2-Chloro-4-{[3-(2,6-dichlorophenyl)-5-isopropylisoxazol-4-yl]methoxy}phenyl)-(methyl)amino]sulfonyl}benzoic acid] | < 100 |

Reference: patent US7319109B2, “Farnesoid X receptor agonists” (Smith Kline Beecham Corporation, priority 2002, dated 2008)
